Reference: US12402610B2, “Methods and compositions for modulating innate lymphoid cell pathogenic effectors” (The Broad Institute, Inc., priority 2018, dated 2025)
Entries after “also recorded” stand apart in the source; their conditions may differ.

Tests used:
ear skin = assay: IL-23 subcutaneous injection psoriasis model, skin thickness measured with calipers; type: in vivo, mouse
Text: (§1) To determine which cells are key to initiate psoriatic disease, Applicants studied a subcutaneous IL-23 injection model, which leads to increased skin thickness after five days of daily injections (FIG. 1a, FIG. 5a). First, Applicants assessed the role of different immune cell types in this model (FIG. 1b, FIG. 5b,c). […] This is also consistent with an increased number of human ILC3s recently observed in psoriatic patients^3,4. Moreover, while γδ T cells have been implicated in a longer treatment course^2,5, analyzing Tcrd^−/− mice, which lack only γδ T cells, Applicants found no evidence that they contribute to disease initiation (FIG. 1b). […] Applicants compared disease phenotype between control mice and those treated with FTY720, which blocks signaling from the S1P1 receptor, preventing egress of T cells from secondary lymphoid tissues and limiting trafficking of induced ILC2s^7,11. […] Thus, in contrast to a model of lung inflammation, in psoriasis, tissue-resident ILCs are sufficient to drive disease pathology and are critical for amplifying the response to IL-23.
(§2) Psoriasis model. The psoriasis model used in this study is based on rIL-23 subcutaneous injections. The 500 ng in 20 μl of rIL-23 (provided by Abbvie or purchased from R&D Systems [scRNAseq experiments]) was injected daily into the ear skin of anesthetized mice in 4 consecutive days. As a control 20 μl of PBS was used with the same injection intervals. For the second challenge experiment, Applicants waited 10 days, monitoring the skin thickness before repeating 4-day injection regimen. Skin thickness was measured daily with calipers. When indicated, FTY720 (1 mg/kg) was dissolved in PBS and administered i.p on day −1, 1 and 3 of the experiment. Skin tissue was collected on day 5 for histology imaging, flow cytometry analysis or cell sorting.

[1] = test system: circulating total white blood cells; assay: Total circulatory white blood cell numbers after FTY720 treatment; type: in vivo, mouse; settings: FTY720 1 mg/kg i.p., WT and Rag1−/− mice, vs untreated
Text: as §1
Psoriasis model. The psoriasis model used in this study is based on rIL-23 subcutaneous injections. […] Skin thickness was measured daily with calipers. […]

skin ILCs [2] = assay: Alternative psoriasis model using topical imiquimod in IL-5 fate / IL-22 BFP / IL-17A GFP reporter mouse; type: in vivo
skin ILCs [3] = assay: IL-5 fate mapping with IL-17A GFP and IL-22 BFP reporters after IL-23 injection; type: in vivo, mouse
Text: (§3) Next, Applicants tested the prediction of a transition during disease of IL-5-expressing ILC2s into IL-22/IL-17A-expressing ILC3-like cells. Applicants generated an IL-5 fate reporter mouse from IL-5-cre-dTomato (Red5)^50 and Rosa26^flox-Stop-floxYFP, which Applicants then combined with IL-17A^GFP 51 and IL-22^BFP expression reporters (FIG. 4b). […] Moreover, cells that expressed ILC3 type cytokines no longer expressed IL-5 (FIG. 4d). […] Finally, Applicants also tested the model's prediction that there is a subset of skin ILCs in the psoriasis model that co-expresses the type 2 cytokine IL-13 with both of the type 3 cytokines IL-22 and IL-17A.
Mice. C57BL/6, Tcrd^−/− and Rosa26^flox-stop-floxYFP Ai3(RCL-EYFP) mice were purchased from the Jackson Laboratories. Rag1^−/− and Rag2^−/−IL2rg^−/− were purchased from Taconic Biosciences. IL-5 Cre, dTomato (Red5/R5) from Dr Locksley laboratory. The IL-5 fate reporter in this work was generated by crossing Red5 with Ai3(RCL-EYFP) with IL-17A^GFP 51 and IL-22^BFP generated in Applicants laboratory. In order to maximize the Cre recombination and increase the signal of Rosa26^YFP positive cells, Applicants used homozygous IL-5^dTomato, Cre. Applicants observed little to no difference in IL-23 induced skin thicknening (FIG. 8a).
Psoriasis model. […] Skin thickness was measured daily with calipers. […]

skin ILCs [4] = assay: Intracellular cytokine staining of skin ILCs after IL-23 treatment; type: in vivo, mouse
Text: as §3
as §2, with “sorting. […]” for “sorting.”

Q: With `CCCCCCCCc1ccc(CCC(N)(CO)CO)cc1` [FTY720, reference compound] as the compound, how does the “psoriasis phenotype induction upon IL-23 administration (skin thickness)” value (ear skin; FTY720-treated vs untreated controls, WT or Rag1−/− mice) read?
A: no difference

Q: And the “increased susceptibility to a secondary challenge with IL-23 (skin thickness)” value (ear skin; FTY720 during the primary injection)?
A: does not impact; also recorded: also observed

Q: What about the “circulating total white blood cells” value [1] of the same compound?
A: blocks; also recorded: reduction

Q: With `CC(C)Cn1cnc2c(N)nc3ccccc3c21` [imiquimod] as the compound, how does the “IL-22 production, compared with IL-23 injection model” value (skin ILCs [2]; topically treated over 10 days) read?
A: less induced

Q: What about the “IL-17A producing cells including exIL-5 cells” value (skin ILCs [2]; topically treated over 10 days vs untreated mice) of the same compound?
A: increase

Q: “IL-23: recombinant cytokine injected subcutaneously into ear skin to induce the psoriasis model” was tested. Which “increase in skin thickness over the treatment course” value (ear skin; Rag1−/− mice (intact ILCs)) did it give?
A: significant increase

Q: And the “increase in ear thickness” value (ear skin; Rag2−/− Il2rg−/− double mutant (lacks all lymphocytes))?
A: did not show any increase

Q: What about the “skin thickening, treated versus untreated recipient mice” value (ear skin; Rag2−/− Il2rg−/− mice with adoptively transferred sorted skin ILCs) of the same compound?
A: significant skin thickening

Q: What about the skin thickness (ear skin; WT mice, daily subcutaneous injections, vs PBS vehicle) of the same compound?
A: significantly higher; also recorded: increased

Q: And the “time for inflammation and skin thickness to revert to near-baseline levels” value (ear skin; after the initial injection)?
A: ≤ 10 days

Q: What about the “phenotype after a second series of injections compared to initial response” value (ear skin; second challenge) of the same compound?
A: significantly more severe

Q: And the “IL-22- and IL-17A-expressing cells that were ex-IL-5 producing cells” value (skin ILCs [3]; after IL-23 injection, fate mapping of ILC2s)?
A: ~10%

Q: And the “number of ex-IL-5 cells producing IL-22 and IL-17A” value (skin ILCs [3]; second IL-23 challenge)?
A: further elevated

Q: What about the “cells expressing IL-22 and IL-17A that also co-express IL-13” value (skin ILCs [4]; Rag1−/− mice) of the same compound?
A: ~20%

Q: What about the “cells expressing IL-22 and IL-17A that also co-express IL-13” value (skin ILCs [4]; WT and Tcrd−/− mice) of the same compound?
A: ~10%
